For one data set, the system named is C57Bl/6 mice. The data set can be described thus: Acute effects after s.c. treatment on blood glucose in an intraperitoneal glucose tolerance test (ipGTT). The class given is in vivo, male C57Bl/6NCrl mice. The conditions noted are these: for Blood glucose concentration AUC / Incremental blood glucose concentration AUCi: Example 14 study, mean ± SEM; for Blood glucose concentration AUC: vehicle 24.44; for Incremental blood glucose concentration AUCi: baseline corrected, vehicle 5.22. An excerpt:
Acute Effects after Subcutaneous (s.c.) Treatment on Blood Glucose in an Intraperitoneal (i.p.) Glucose Tolerance Test (ipGTT) in Healthy, Male C57Bl/6 Mice
Healthy, normoglycemic male C57Bl/6NCrl mice were ordered in an age of 9-10 weeks with an approximate body weight (BW) of 24-26 g at Charles River Laboratories Deutschland GmbH, 97633 Sulzfeld, Germany. Mice were shipped grouped housed (N=4 per cage), acclimatized for one week and remained grouped housed throughout the entire study. Mice were housed under vivarium conditions that included a 12 h light/dark cycle (light phase 06:00 AM-06:00 PM), mean room temperature of 22±2° C. and a relative mean humidity of 55±10%. All animals had free access to food (Ssniff R/M-H diet) and water prior to study start. At study start mice were between 10-11 weeks old.
The primary objective of the study was to investigate the compound-induced lowering of the blood glucose excursion and improvement of glucose tolerance in a mouse ipGTT setting and therefore the primary parameters included blood glucose, delta blood glucose (normalized to the time point just prior to the i.p. glucose challenge, t=0 h) and their respective calculated area under curve (AUC) values. The study was performed as an acute, single dosing study with 6 groups and the male animals were randomly divided to groups of 7-8 mice per group. Dose-dependent pharmacodynamic blood glucose lowering efficacy of the GIPR agonist was analyzed with s.c. injections 6 h before the i.p. glucose load in the dose range from 3 up to 100 nmol/kg and compared to the vehicle group as well as the semaglutide positive control at a dose of 10 nmol/kg.
In more detail, mice were fed overnight and on the following morning brought to the lab with food removed but ad libitum access to water. Blood samplings (5 μl) were performed at: −6.5, −0.5, 0, 0.17, 0.5, 1, 1.5, 2 and 3 h before and after the glucose bolus of 1 g glucose per kg BW i.p. given at time point t=0 h. On time point t=0.17 h an additional K-EDTA plasma sample from 60-80 μl blood was taken for plasma insulin analysis. Blood was withdrawn from the tip of the tail. The GIPR agonist and semaglutide were dissolved in 10 mM phosphate buffer pH 7.4 with 2.3% glycerol and 0.01% polysorbat 20 (vehicle) and s.c. treatment was performed −6 h before the glucose load (t=0 h) using an injection volume of 5 ml/kg. The injection solutions were freshly prepared prior to the experiment using sterile filtered vehicle solution. Blood glucose was determined enzymatically (Gluco-quant® Glucose/HK kit on Roche/Hitachi 912). Plasma insulin was determined using a mouse/rat insulin sandwich immunoassay kit from Meso Scale Discovery.
All data were collected using Microsoft Excel. None of the data were collected online. The results are expressed as means±standard error of the mean (SEM). As primary study parameters, blood glucose, baseline (time point t=0 h) subtracted delta blood glucose and their respective calculated area under curve (AUC) values were determined.
The statistical analysis of the ipGTT blood glucose excursion data response following subcutaneous compound or vehicle treatment was performed on the calculated AUC values of blood glucose raw data as well as the calculated AUC values for baseline subtracted delta blood glucose data. In a first step the Levene's test was used to test for equality of variances between groups. […] Where Levene's test was not significant (p>0.05) ANOVA was conducted without prior rank transformation. In a second step a One-way ANOVA analysis for factor treatment followed by Dunnett's multiple comparisons test vs. vehicle group was used to test for statistical differences. All analyses were performed using SAS (version 9.4) under Linux via the interface software EverSt@t V6.1.
Male C57Bl/6NCrl mice were fed overnight and on the following morning brought to the lab with food removed but adlibitum access to water. […]

The nature of data set [1]: Pharmacokinetic evaluation in mice. The data set is classed as in vivo, female C57Bl/6 mice. The conditions noted are these: female, C57Bl/6, mouse, in vivo. On the procedure: Compounds were administered in a suitable buffer system, e.g. PBS buffer solution at pH7.4 or DPBS solution at concentrations of 0.05, 0.1, 0.5 or 1 mg/ml depending on dose, species and administration volume. Female C57Bl/6 mice were dosed 0.25 mg/kg, 0.5 mg/kg or 1 mg/kg intravenously (i.v.) or subcutaneously (s.c.). The mice were sacrificed, and blood samples were collected after 0.08, 0.25, 0.5, 1, 2, 4, 8, 24, 32, and 48 h post i.v. application and 0.25, 0.5, 1, 2, 4, 8, 24, 32, and 48 h post s.c. application, respectively. Plasma samples were analysed after protein precipitation via liquid chromatography mass spectrometry (LC/MS). PK parameters and half-life were calculated using Phoenix-WinNonlin 8.1 using a non-compartmental model and linear trapezoidal interpolation calculation. Pharmacokinetic profiles were determined as described in Methods.

Numbered stars: 1 amine (or outer) side, 2 acyl side, 3 side chain; on linkers, the order of the positions; unused ones are H or OH. Square brackets hold non-standard residues; d marks the D form. Side chains are listed from the residue outwards. Peptide text beside a SMILES is read from it. * marks the point of attachment. C18 diacid = O=C(O)CCCCCCCCCCCCCCCCC(=O)*; γGlu = O=C(O)[C@H](CCC(=O)[*:2])N[*:1]; AEEA = NCCOCCOCC(=O)O; Aib = CC(C)(N)C(=O)O

One may read the AUC(0-t) as exposure summed from dosing to a finite time, without extrapolation to infinity. A higher AUC(0-t) goes with high exposure. For orientation: Cmax means the peak of the concentration-time curve. One may read the clearance as the volume of plasma or blood freed of the substance per unit of time. For orientation: half-life means the time needed for the level to fall by half in the phase considered. Higher therefore signals slow loss. For orientation: bioavailability means the share of a dose that reaches the circulation, judged against a reference dose that is usually intravenous. Read a high bioavailability as much systemic uptake. On to `CC[C@H](C)[C@H](NC(=O)[C@H](Cc1ccccc1)NC(=O)[C@H](CCC(=O)O)NC(=O)[C@H](CCC(=O)O)NC(=O)[C@H](CCC(N)=O)NC(=O)[C@H](Cc1c[nH]cn1)NC(=O)[C@@H](NC(=O)[C@H](CCCNC(=N)N)NC(=O)[C@H](CC(=O)O)NC(=O)[C@H](CCCCNC(=O)COCCOCCNC(=O)COCCOCCNC(=O)CC[C@H](NC(=O)CCCCCCCCCCCCCCCCC(=O)O)C(=O)O)NC(=O)C(C)(C)NC(=O)[C@@H](NC(=O)[C@H](CO)NC(=O)[C@H](CC(C)C)NC(=O)[C@H](CC(=O)O)NC(=O)[C@H](CO)NC(=O)[C@@H](NC(=O)[C@H](Cc1ccccc1)NC(=O)[C@@H](NC(=O)CNC(=O)[C@H](CCC(=O)O)NC(=O)C(C)(C)NC(=O)[C@@H](N)Cc1ccc(O)cc1)[C@@H](C)O)[C@@H](C)CC)[C@@H](C)CC)[C@@H](C)CC)C(=O)N[C@@H](CCC(N)=O)C(=O)N[C@@H](Cc1c[nH]c2ccccc12)C(=O)N[C@@H](CC(C)C)C(=O)N[C@@H](CC(C)C)C(=O)N[C@@H](C)C(=O)N[C@@H](CCC(N)=O)C(=O)NCC(=O)N1CCC[C@H]1C(=O)N[C@@H](CO)C(=O)N[C@@H](CO)C(=O)NCC(=O)N[C@@H](C)C(=O)N1CCC[C@H]1C(=O)N1CCC[C@H]1C(=O)N1CCC[C@H]1C(=O)N[C@@H](CO)C(N)=O` [SEQ ID NO: 35, H2N-Y-Aib-E-G-T-F-I-S-D-L-S-I-Aib-K[{AEEA}2-gGlu-C18OH]-DRIHQEEFIQWLLAQGPSSGAPPPS-NH2] (H-Y[Aib]EGTFISDLSI[Aib]K([AEEA-AEEA-γGlu-C18 diacid])DRIHQEEFIQWLLAQGPSSGAPPPS-NH2), for which the “Blood glucose concentration AUC” value in the data set on C57Bl/6 mice (3 nmol/kg s.c. 6 h before i.p. glucose) was “+24.41 ± 0.743 mmol/L* 0-2 h”; in the data set on C57Bl/6 mice (10 nmol/kg s.c. 6 h before i.p. glucose), “+20.67 ± 0.516 mmol/L* 0-2 h”; in the data set with C57Bl/6 mice (30 nmol/kg s.c. 6 h before i.p. glucose), “+18.45 ± 0.308 mmol/L* 0-2 h”; with C57Bl/6 mice (100 nmol/kg s.c. 6 h before i.p. glucose), “+15.17 ± 0.452 mmol/L* 0-2 h”. Moreover, the “Incremental blood glucose concentration AUCi” value with C57Bl/6 mice (3 nmol/kg s.c.) was “+5.57 ± 0.454 mmol/L* 0-2 h”; with C57Bl/6 mice (10 nmol/kg s.c.) it was “+5.05 ± 0.432 mmol/L* 0-2 h”; with C57Bl/6 mice (30 nmol/kg s.c.), “+3.03 ± 0.225 mmol/L* 0-2 h”; with C57Bl/6 mice (100 nmol/kg s.c.) it was “+1.76 ± 0.222 mmol/L* 0-2 h”. Also, the “minimal effective dose for improvement of i.p. glucose tolerance” value in the data set on C57Bl/6 mice (single s.c. dose, C57Bl/6NCrl mice, vs. vehicle) was in the range of 10 to 30 nmol/kg. Also, the AUC(0-t) was found to be 12800 ng·h/mL in data set [1] (iv, 0.25 mg/kg) and 21800 ng·h/mL in data set [1] (sc, 0.5 mg/kg). The Cmax in data set [1] (iv, 0.25 mg/kg) is 1850 ng/mL; in data set [1] (sc, 0.5 mg/kg) it was 1400 ng/mL. In data set [1] (iv, 0.25 mg/kg), the clearance is 0.325 mL/min/kg. Also, the half-life in data set [1] (iv, 0.25 mg/kg) is 6.19 h; in data set [1] (sc, 0.5 mg/kg), 6.97 h. Also, in data set [1] (sc, 0.5 mg/kg), the bioavailability was found to be 86%.

Source of the values: patent US20240360194A1, “New Peptides as Potent and Selective GIP Receptor Agonists” (Sanofi, priority 2021, published 2024).
